Reference: patent publication US20240000872A1, “NOVEL BACTERIOPHAGE THAT LYSES ACINETOBACTER GENUS BACTERIA HAVING RESISTANCE TO ANTIBIOTICS” (priority 2020, published 2024)

Tested on: Acinetobacter baumannii strains
Assay: Antibiotic susceptibility test (CLSI disk diffusion test method, read per CLSI 2016); further: key: ‘S’ means susceptible; ‘I’ means intermediate; ‘R’ means resistant
Assay type: cell-based

Compound: NCC[C@H](O)C(=O)N[C@@H]1C[C@H](N)[C@@H](O[C@H]2O[C@H](CN)[C@@H](O)[C@H](O)[C@H]2O)[C@H](O)[C@H]1O[C@H]1O[C@H](CO)[C@@H](O)[C@H](N)[C@H]1O [Amikacin, amikacin]
- antibiotic susceptibility class (host strain YMC14/01/C29): R
- antibiotic susceptibility class (host strain YMC14/01/IP122): R
- antibiotic susceptibility class (host strain YMC14/01/L8): R
- antibiotic susceptibility class (host strain YMC14/01/P31): R
- antibiotic susceptibility class (host strain YMC14/01/P117): R
- antibiotic susceptibility class (host strain YMC14/01/P224): R
- antibiotic susceptibility class (host strain YMC14/01/P727): R
- antibiotic susceptibility class (host strain YMC14/01/P728): R
- antibiotic susceptibility class (host strain YMC14/01/R130): R
- antibiotic susceptibility class (host strain YMC14/01/R160): R
- antibiotic susceptibility class (host strain YMC14/01/R198): R
- antibiotic susceptibility class (host strain YMC14/01/R257): S
- antibiotic susceptibility class (host strain YMC14/01/R270): R
- antibiotic susceptibility class (host strain YMC14/01/R324): R
- antibiotic susceptibility class (host strain YMC14/01/R443): R
- antibiotic susceptibility class (host strain YMC14/01/R451): R
- antibiotic susceptibility class (host strain YMC14/01/R560): R
- antibiotic susceptibility class (host strain YMC14/01/R617): R
- antibiotic susceptibility class (host strain YMC14/01/R671): R
- antibiotic susceptibility class (host strain YMC14/01/R732): R
- antibiotic susceptibility class (host strain YMC14/01/R767): R
- antibiotic susceptibility class (host strain YMC14/01/R904): R
- antibiotic susceptibility class (host strain YMC14/01/R905): R
- antibiotic susceptibility class (host strain YMC14/01/R921): S
- antibiotic susceptibility class (host strain YMC14/01/R941): R
- antibiotic susceptibility class (host strain YMC14/01/R958): R
- antibiotic susceptibility class (host strain YMC14/01/R1006): R
- antibiotic susceptibility class (host strain YMC14/01/R1199): R
- antibiotic susceptibility class (host strain YMC14/01/R1659): R
- antibiotic susceptibility class (host strain YMC14/01/R1722): R
- antibiotic susceptibility class (host strain YMC14/01/R1752): R
- antibiotic susceptibility class (host strain YMC14/01/R2429): R
- antibiotic susceptibility class (host strain YMC14/01/R2572): R
- antibiotic susceptibility class (host strain YMC14/01/R2855): R
- antibiotic susceptibility class (host strain YMC14/01/R2945): R
- antibiotic susceptibility class (host strain YMC14/01/R3007): R
- antibiotic susceptibility class (host strain YMC14/01/R3129): R
- antibiotic susceptibility class (host strain YMC14/01/R3317): R
- antibiotic susceptibility class (host strain YMC14/01/R3474): R
- antibiotic susceptibility class (host strain YMC14/01/R3574): R
- antibiotic susceptibility class (host strain YMC14/01/U313): R
- antibiotic susceptibility class (host strain YMC14/01/U318): R
- antibiotic susceptibility class (host strain YMC14/02/L18): R
- antibiotic susceptibility class (host strain YMC14/02/P47): R
- antibiotic susceptibility class (host strain YMC14/02/R1860): S
- antibiotic susceptibility class (host strain YMC14/02/R2417): R
- antibiotic susceptibility class (host strain YMC14/02/R2599): S
- antibiotic susceptibility class (host strain YMC14/02/R2668): R
- antibiotic susceptibility class (host strain YMC14/02/R2758): R
- antibiotic susceptibility class (host strain YMC14/02/R2781): R
- antibiotic susceptibility class (host strain YMC14/02/R3106): R
- antibiotic susceptibility class (host strain YMC14/02/R3419): R
- antibiotic susceptibility class (host strain YMC14/02/U1607): S
- antibiotic susceptibility class (host strain YMC14/03/L9): S
- antibiotic susceptibility class (host strain YMC14/03/P471): S
- antibiotic susceptibility class (host strain YMC14/03/R122): S
- antibiotic susceptibility class (host strain YMC14/03/R217): R
- antibiotic susceptibility class (host strain YMC14/03/R380): R
- antibiotic susceptibility class (host strain YMC14/03/R618): S
- antibiotic susceptibility class (host strain YMC14/03/R2144): R
- antibiotic susceptibility class (host strain YMC14/03/U4616): R
- antibiotic susceptibility class (host strain YMC14/04/R1078): S
- antibiotic susceptibility class (host strain YMC14/04/R1080): S
- antibiotic susceptibility S/I/R (host strain YMC14/06/R2359): R
- susceptibility category (S/I/R) (host strain YMC14/06/R2359): R
- antibiotic susceptibility S/I/R (host strain YMC14/08/R1169): R
- susceptibility category (S/I/R) (host strain YMC14/08/R1169): R
- antibiotic susceptibility S/I/R (host strain YMC14/08/T90): R
- susceptibility category (S/I/R) (host strain YMC14/08/T90): R
- antibiotic susceptibility S/I/R (host strain YMC15/02/R436): R
- susceptibility category (S/I/R) (host strain YMC15/02/R436): R
- antibiotic susceptibility S/I/R (host strain YMC15/02/T28): R
- susceptibility category (S/I/R) (host strain YMC15/02/T28): R
- antibiotic susceptibility S/I/R (host strain YMC15/03/R1604): R
- susceptibility category (S/I/R) (host strain YMC15/03/R1604): R
- antibiotic susceptibility S/I/R (host strain YMC15/09/R1869): R
- susceptibility category (S/I/R) (host strain YMC15/09/R1869): R
- antibiotic susceptibility S/I/R (host strain YMC16/01/P11): R
- susceptibility category (S/I/R) (host strain YMC16/01/P11): R
- antibiotic susceptibility S/I/R (host strain YMC16/01/R123): R
- susceptibility category (S/I/R) (host strain YMC16/01/R123): R
- antibiotic susceptibility S/I/R (host strain YMC16/01/R198): R
- susceptibility category (S/I/R) (host strain YMC16/01/R198): R
- antibiotic susceptibility S/I/R (host strain YMC16/01/R353): R
- susceptibility category (S/I/R) (host strain YMC16/01/R353): R
- antibiotic susceptibility S/I/R (host strain YMC16/01/R397): R
- susceptibility category (S/I/R) (host strain YMC16/01/R397): R
- antibiotic susceptibility S/I/R (host strain YMC16/01/R405): R
- susceptibility category (S/I/R) (host strain YMC16/01/R405): R
- antibiotic susceptibility S/I/R (host strain YMC16/03/R4461): R
- susceptibility category (S/I/R) (host strain YMC16/03/R4461): R
- antibiotic susceptibility S/I/R (host strain YMC16/07/R2512): R
- susceptibility category (S/I/R) (host strain YMC16/07/R2512): R
- antibiotic susceptibility S/I/R (host strain YMC16/09/R2471): R
- susceptibility category (S/I/R) (host strain YMC16/09/R2471): R
- antibiotic susceptibility S/I/R (host strain YMC16/10/R2537): R
- susceptibility category (S/I/R) (host strain YMC16/10/R2537): R
- antibiotic susceptibility S/I/R (host strain YMC16/12/B11422): R
- susceptibility category (S/I/R) (host strain YMC16/12/B11422): R
- antibiotic susceptibility S/I/R (host strain YMC16/12/B11449): R
- susceptibility category (S/I/R) (host strain YMC16/12/B11449): R
- antibiotic susceptibility S/I/R (host strain YMC16/12/B13325): R
- susceptibility category (S/I/R) (host strain YMC16/12/B13325): R
- antibiotic susceptibility S/I/R (host strain YMC16/12/P503): R
- susceptibility category (S/I/R) (host strain YMC16/12/P503): R
- antibiotic susceptibility S/I/R (host strain YMC16/12/R4637): R
- susceptibility category (S/I/R) (host strain YMC16/12/R4637): R
- antibiotic susceptibility S/I/R (host strain YMC17/01/B8053): R
- susceptibility category (S/I/R) (host strain YMC17/01/B8053): R
- antibiotic susceptibility S/I/R (host strain YMC17/01/B10087): R
- susceptibility category (S/I/R) (host strain YMC17/01/B10087): R
- antibiotic susceptibility S/I/R (host strain YMC17/01/B12075): S
- susceptibility category (S/I/R) (host strain YMC17/01/B12075): S
- antibiotic susceptibility S/I/R (host strain YMC17/01/B13454): R
- susceptibility category (S/I/R) (host strain YMC17/01/B13454): R
- antibiotic susceptibility S/I/R (host strain YMC17/01/P518): R
- susceptibility category (S/I/R) (host strain YMC17/01/P518): R
- antibiotic susceptibility S/I/R (host strain YMC17/01/R2812): R
- susceptibility category (S/I/R) (host strain YMC17/01/R2812): R
- antibiotic susceptibility S/I/R (host strain YMC17/02/B14): R
- susceptibility category (S/I/R) (host strain YMC17/02/B14): R
- antibiotic susceptibility S/I/R (host strain YMC17/02/B87): S
- susceptibility category (S/I/R) (host strain YMC17/02/B87): S
- antibiotic susceptibility S/I/R (host strain YMC17/02/B721): R
- susceptibility category (S/I/R) (host strain YMC17/02/B721): R
- antibiotic susceptibility S/I/R (host strain YMC17/02/B4039): R
- susceptibility category (S/I/R) (host strain YMC17/02/B4039): R
- antibiotic susceptibility S/I/R (host strain YMC17/02/B4520): R
- susceptibility category (S/I/R) (host strain YMC17/02/B4520): R
- antibiotic susceptibility S/I/R (host strain YMC17/02/B4864): S
- susceptibility category (S/I/R) (host strain YMC17/02/B4864): S
- antibiotic susceptibility S/I/R (host strain YMC17/02/B8414): R
- susceptibility category (S/I/R) (host strain YMC17/02/B8414): R
- antibiotic susceptibility S/I/R (host strain YMC17/02/P523): S
- susceptibility category (S/I/R) (host strain YMC17/02/P523): S
- antibiotic susceptibility S/I/R (host strain YMC17/02/R541): R
- susceptibility category (S/I/R) (host strain YMC17/02/R541): R
- antibiotic susceptibility S/I/R (host strain YMC17/02/R2392): R
- susceptibility category (S/I/R) (host strain YMC17/02/R2392): R
- antibiotic susceptibility S/I/R (host strain YMC17/03/B4730): R
- susceptibility category (S/I/R) (host strain YMC17/03/B4730): R
- antibiotic susceptibility S/I/R (host strain YMC17/03/B5000): R
- susceptibility category (S/I/R) (host strain YMC17/03/B5000): R
- antibiotic susceptibility S/I/R (host strain YMC17/03/P971): R
- susceptibility category (S/I/R) (host strain YMC17/03/P971): R
- antibiotic susceptibility S/I/R (host strain YMC17/03/R348): R
- susceptibility category (S/I/R) (host strain YMC17/03/R348): R
- antibiotic susceptibility S/I/R (host strain YMC17/03/R585): R
- susceptibility category (S/I/R) (host strain YMC17/03/R585): R
- antibiotic susceptibility S/I/R (host strain YMC17/03/R1888): R
- susceptibility category (S/I/R) (host strain YMC17/03/R1888): R
- antibiotic susceptibility S/I/R (host strain YMC17/03/R3279): R
- susceptibility category (S/I/R) (host strain YMC17/03/R3279): R
- antibiotic susceptibility S/I/R (host strain YMC17/03/R4077): R
- susceptibility category (S/I/R) (host strain YMC17/03/R4077): R
- antibiotic susceptibility S/I/R (host strain YMC17/03/R4607): R
- susceptibility category (S/I/R) (host strain YMC17/03/R4607): R
- antibiotic susceptibility S/I/R (host strain YMC17/04/R488): R
- susceptibility category (S/I/R) (host strain YMC17/04/R488): R
- antibiotic susceptibility S/I/R (host strain YMC17/04/R640): R
- susceptibility category (S/I/R) (host strain YMC17/04/R640): R
- antibiotic susceptibility S/I/R (host strain YMC/17/05/R1095): R
- susceptibility category (S/I/R) (host strain YMC/17/05/R1095): R
